“Also recorded” adds a separate entry of the source. Read-outs that look alike come from different tables or passages of the source.
Columns and labels:
[1] = tested on: patients with acute decompensation of cirrhosis and suspected ACLF; test: Three-arm, randomized, controlled TMZ study in suspected ACLF: mortality; type: in vivo, human; conditions: for Treatment effect on Day 90 mortality: dihydrochloride
Source text: A three-arm, randomized, controlled study enrolled 133 subjects presenting with acute decompensation of cirrhosis and suspected ACLF.
Patient were divided into two groups by Child Pugh score: Class A or B (<10) and Class C (≥10).
[…] 1. The ACLF3 group was not analyzed because of the small numbers.

[2] = TMZ study in suspected ACLF: white blood cell count, platelet count, creatinine clearance; type: in vivo, human; conditions: throughout the study, TMZ versus control groups; dihydrochloride
Source text: A three-arm, randomized, controlled study enrolled 133 subjects presenting with acute decompensation of cirrhosis and suspected ACLF. Included patients presented with a prothrombin time extended by 4-6 seconds or an international normalized ratio of ≥1.5 or any degree of hepatic encephalopathy as assessed by the West Haven criteria.
In view of the overall disturbed immunlological state and the coagulopathy that is common in ACLF, it is important to asertain whether trimetazidine poses an additional risk to ACLF patients in this regard.

[3] = cited from earlier work
[4] = tested on: liver lipid homeostasis; conditions: human normal obese subjects; cited from earlier work
[5] = tested on: non-alcoholic steatohepatitis; conditions: human population; cited from earlier work
[6] = tested on: carbon tetrachloride-induced fulminant liver failure; conditions: animal model; cited from earlier work
[7] = Day 30, CP < 10, TMZ arm = TMZ + LOLA + SoC, LOLA arm = LOLA + SoC

COc1ccc(CN2CCNCC2)c(OC)c1OC.Cl.Cl [TMZ, 1-(2,3,4-trimethoxybenzyl)piperazine dihydrochloride]
Treatment effect on Day 90 mortality ([1]; ACLF1 population): drug effect was visible; also recorded: Positive results | Treatment effect on Day 90 mortality ([1]; ACLF2 population): drug effect was visible; also recorded: Positive results | Treatment effect on Day 90 mortality ([1]; ACLF population by EASL-CLIF criteria, worst case imputation): highly statistically significant difference; also recorded: robust effect | Treatment effect on Day 90 mortality ([1]; AD population by EASL-CLIF criteria, worst case imputation): not even a trend towards an effect; also recorded: ineffective | 30- and 90-day mortality ([1]; Child Pugh Class C (≥10) subjects): substantial and statistically significant reductions | Alive (number of patients) [1, 7]: 9 | Dead (number of patients) [1, 7]: 2 | Dead (percent of patients) [1, 7]: 18% | Alive (number of patients) ([1]; Day 30, CP ≥ 10): 20 | Dead (number of patients) ([1]; Day 30, CP ≥ 10): 5 | Dead (percent of patients) ([1]; Day 30, CP ≥ 10): 20% | Alive (number of patients) ([1]; Day 90, CP < 10): 7 | Dead (number of patients) ([1]; Day 90, CP < 10): 4 | Dead (percent of patients) ([1]; Day 90, CP < 10): 36% | Alive (number of patients) ([1]; Day 90, CP ≥ 10): 16 | Dead (number of patients) ([1]; Day 90, CP ≥ 10): 9 | Dead (percent of patients) ([1]; Day 90, CP ≥ 10): 36% | Estimated creatinine clearance rate [2]: does not Affect; also recorded: no difference between the TMZ and control groups | Platelet count / thrombocytopenia [2]: does not Affect; also recorded: not causing thrombocytopenia; also recorded: no difference between the TMZ and control groups | White blood cell levels [2]: does not Affect; also recorded: no meaningful difference between the TMZ and control groups | Solubility in water / aqueous solution ([3]; dihydrochloride): highly soluble in water | Solubility in water / aqueous solution ([3]; listed as dihydrochloride form of TMZ, dihydrochloride): very soluble | Effect on liver lipid homeostasis [4]: improve liver lipid homeostasis | Effect on parameters associated with non-alcoholic steatohepatitis [5]: improve certain parameters associated with non-alcoholic steatohepatitis | Effectiveness in fulminant liver failure [6]: effectiveness

L-ornithine-L-aspartate [LOLA]
Alive (number of patients) [1, 7]: 10 | Alive (number of patients) ([1]; Day 30, CP ≥ 10): 16 | Alive (number of patients) ([1]; Day 90, CP < 10): 6 | Alive (number of patients) ([1]; Day 90, CP ≥ 10): 6

COc1ccc(CN2CCNCC2)c(OC)c1OC [neutral form of TMZ, 1-(2,3,4-trimethoxybenzyl)piperazine]
Solubility in organic environments [3]: soluble in certain organic environments | Solubility in water / aqueous solution [3]: only sparingly soluble in aqueous solution

From patent US20200261443A1, “Use of Anti-Ischemic Compounds in Treating Acute-On-Chronic Liver Failure” (Martin Pharmaceuticals Inc., priority 2019, published 2020)
